Where only a bound is given, the exact number is not on record here.

For one series, the target named is T1, CYP1A2 (Homo sapiens, UniProt P05177).
T1 sequence (P05177 1-516): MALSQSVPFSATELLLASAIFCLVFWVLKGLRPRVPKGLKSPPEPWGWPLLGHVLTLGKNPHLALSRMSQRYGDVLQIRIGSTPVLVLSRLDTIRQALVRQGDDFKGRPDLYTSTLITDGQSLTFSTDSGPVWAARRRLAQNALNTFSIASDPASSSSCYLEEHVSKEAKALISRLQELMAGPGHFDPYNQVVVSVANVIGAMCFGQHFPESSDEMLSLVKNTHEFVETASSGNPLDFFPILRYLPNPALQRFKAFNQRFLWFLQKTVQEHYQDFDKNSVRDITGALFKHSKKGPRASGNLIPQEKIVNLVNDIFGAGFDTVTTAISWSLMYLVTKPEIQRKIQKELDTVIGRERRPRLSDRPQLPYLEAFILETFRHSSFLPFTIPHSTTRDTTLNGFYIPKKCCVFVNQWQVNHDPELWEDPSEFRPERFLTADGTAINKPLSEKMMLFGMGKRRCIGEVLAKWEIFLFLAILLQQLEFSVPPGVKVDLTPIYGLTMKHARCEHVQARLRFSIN
Briefly: Cytochrome P450 inhibition, CYP1A2. The text has this: (§1) This cytochrome P450 high throughput IC50 inhibition assay is utilized for screening potential inhibitors of the 5 major human CYP isozyme catalytic activities (CYP3A4, 2D6, 2C9, 2C19, and 1A2).

The next series has as its system Schistosomes lavae. Briefly: Screening against Schistosomes, larvae. The class given is cell-based. Conditions: Screening Data.
Another series deals with CYP2C9 (Homo sapiens, UniProt P11712). Put plainly: Cytochrome P450 inhibition, CYP2C9.
Sequence of CYP2C9 (P11712 whole entry): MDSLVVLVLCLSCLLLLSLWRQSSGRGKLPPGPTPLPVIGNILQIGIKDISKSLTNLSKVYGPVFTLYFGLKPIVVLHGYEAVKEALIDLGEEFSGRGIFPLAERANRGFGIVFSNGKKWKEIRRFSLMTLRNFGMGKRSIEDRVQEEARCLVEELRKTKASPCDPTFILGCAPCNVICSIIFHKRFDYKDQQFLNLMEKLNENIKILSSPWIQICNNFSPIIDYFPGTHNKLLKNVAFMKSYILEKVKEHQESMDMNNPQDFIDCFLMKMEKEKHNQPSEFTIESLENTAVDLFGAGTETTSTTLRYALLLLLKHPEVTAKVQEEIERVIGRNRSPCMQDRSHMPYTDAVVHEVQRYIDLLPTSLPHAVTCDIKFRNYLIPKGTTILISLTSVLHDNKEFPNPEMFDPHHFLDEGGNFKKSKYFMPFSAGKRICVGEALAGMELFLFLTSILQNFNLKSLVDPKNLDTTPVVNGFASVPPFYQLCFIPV
Source text: as §1

Series [1] is described as follows: Solubility in phosphate buffer. The class given is physicochemical. The following applies: phosphate buffer, aqueous buffer, kinetic from dmso stock; Example 12 chart; pH 7.4. The method, then:
A stock solution for each test compound was prepared at 25 mM in DMSO. These were diluted into phosphate buffer and equilibrated for 16 hours at room temperature, and then filtered to remove precipitated compound. The UV absorbance of this equilibrated sample was compared to a single point reference standard.

Another series addresses CYP2C19 (Homo sapiens, UniProt P33261). Briefly: Cytochrome P450 inhibition, CYP2C19.
Source text: as §1

A further series deals with CYP3A4 (Homo sapiens, UniProt P08684). Put plainly: Cytochrome P450 inhibition, CYP3A4.
Sequence of CYP3A4 (P08684 whole entry): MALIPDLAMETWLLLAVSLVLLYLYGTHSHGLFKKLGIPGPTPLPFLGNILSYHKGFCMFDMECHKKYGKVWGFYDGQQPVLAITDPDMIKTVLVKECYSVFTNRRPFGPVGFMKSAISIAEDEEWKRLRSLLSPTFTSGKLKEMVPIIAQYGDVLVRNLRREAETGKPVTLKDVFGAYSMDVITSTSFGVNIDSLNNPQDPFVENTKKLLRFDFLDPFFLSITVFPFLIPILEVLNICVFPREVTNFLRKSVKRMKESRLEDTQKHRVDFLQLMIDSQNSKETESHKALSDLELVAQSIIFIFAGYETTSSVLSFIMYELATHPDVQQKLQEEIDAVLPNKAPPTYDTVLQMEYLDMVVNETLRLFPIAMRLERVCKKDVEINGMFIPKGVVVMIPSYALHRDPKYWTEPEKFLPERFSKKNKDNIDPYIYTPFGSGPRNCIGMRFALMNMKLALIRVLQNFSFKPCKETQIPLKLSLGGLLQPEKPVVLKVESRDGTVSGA
Source text: as §1

The test system of another series is Schistosomes adult. Put plainly: Screening against Schistosomes, adult. It is filed as cell-based. Conditions: Screening Data.
The next series concerns the target CYP2D6 (Homo sapiens, UniProt P10635). Put plainly: Cytochrome P450 inhibition, CYP2D6.
Source text: as §1

The subject of the next series is T. b. brucei. Put plainly: Cell-based screening against T. b. brucei. The following applies: Screening Data, two values per compound. Also noted: species or system Trypanosoma brucei brucei. The method, then: The bloodstream form trypomastigotes of the three strains are maintained according to standard protocols established at STI.
Drug sensitivity assays are performed in sterile 96-well microtiter plates, with or without serial drug dilutions. The highest concentration for the test compounds is 90 μg/ml. Each drug is tested in duplicate. After 72 hours of incubation the plates are inspected microscopically to assure growth of the controls to determine the minimum inhibitory concentration (MIC), i.e., the lowest drug concentration at which no trypanosomes with normal morphology and motility can be seen compared to control wells. Cell viability is measured by Alamar blue staining and IC50 values are calculated.
Active compounds (IC50<0.2 μg/ml) are tested against the Trypanosoma brucei gambiense STIB 930 and the multi-drug resistant T. b. brucei STIB 950 following the same protocol as described above.
This example provides data relating to the biological screening results. MDL 73811 and selected new compounds 1-7 were tested against a variety of cell-based organisms and enzymes and the IC50 measured. In vitro ADME profiles were also obtained. Solubility, permeability, microsomal/hepatocyte stability, cychrome P450 inhibition and plasma protein binding characteristics were probed for each of the compounds. The methodology for these tests are described in previous paragraphs. The results are summarized in the following 2 charts.

Sequence of CYP2D6 (P10635 whole entry): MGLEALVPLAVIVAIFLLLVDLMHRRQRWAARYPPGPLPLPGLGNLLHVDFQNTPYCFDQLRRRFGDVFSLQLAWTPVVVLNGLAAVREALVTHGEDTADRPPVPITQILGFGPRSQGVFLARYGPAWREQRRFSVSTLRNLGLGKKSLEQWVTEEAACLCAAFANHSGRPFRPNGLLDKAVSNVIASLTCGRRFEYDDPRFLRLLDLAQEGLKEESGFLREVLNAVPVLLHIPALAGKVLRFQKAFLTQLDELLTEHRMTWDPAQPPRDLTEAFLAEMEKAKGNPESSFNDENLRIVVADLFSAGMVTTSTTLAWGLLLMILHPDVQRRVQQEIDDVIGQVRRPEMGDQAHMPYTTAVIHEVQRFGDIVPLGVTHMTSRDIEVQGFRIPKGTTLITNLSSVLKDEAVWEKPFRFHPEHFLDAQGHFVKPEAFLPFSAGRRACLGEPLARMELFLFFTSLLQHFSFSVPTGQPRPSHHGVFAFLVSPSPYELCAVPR
Sequence of CYP2C19 (P33261 whole entry): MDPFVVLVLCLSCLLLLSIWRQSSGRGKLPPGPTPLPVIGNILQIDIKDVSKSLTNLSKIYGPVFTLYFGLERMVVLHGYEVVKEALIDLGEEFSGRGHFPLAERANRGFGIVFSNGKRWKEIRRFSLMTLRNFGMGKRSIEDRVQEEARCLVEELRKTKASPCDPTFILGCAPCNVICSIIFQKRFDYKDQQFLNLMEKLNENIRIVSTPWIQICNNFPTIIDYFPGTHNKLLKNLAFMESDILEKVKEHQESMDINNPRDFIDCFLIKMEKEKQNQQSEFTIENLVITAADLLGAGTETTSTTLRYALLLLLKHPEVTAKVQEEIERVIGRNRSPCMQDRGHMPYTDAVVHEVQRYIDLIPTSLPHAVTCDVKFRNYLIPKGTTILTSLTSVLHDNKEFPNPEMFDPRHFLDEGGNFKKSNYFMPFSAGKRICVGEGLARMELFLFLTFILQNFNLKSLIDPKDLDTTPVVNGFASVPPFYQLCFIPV

Consider `CCCc1nc2c(N)ncnc2n1[C@@H]1O[C@H](CN(C)C/C=C\CN)[C@@H](O)[C@H]1O` [Compound 7], for which the IC50 (commonly the concentration that gives 50% inhibition) on CYP1A2 was more than 5 µM; in the series on Schistosomes lavae, more than 10 µM; at CYP2C9 it was more than 5 µM; at CYP2C19 it was more than 5 µM; at CYP3A4 it was more than 5 µM; in the series with Schistosomes adult, more than 10 µM. Besides, the IC50 on CYP2D6 is more than 5 µM; with T. b. brucei, 9.4 µM; with T. b. brucei (Trypanosoma brucei), 12.7 µM. In addition, the solubility (commonly the concentration that dissolves in the medium under given conditions) at 16 hours in [1] was more than 52 µg/mL. The logD – broadly, the decadic logarithm of the distribution of all forms, ionised or not, between an organic phase and buffer at a given pH – in the series “LogD” was less than 1.
With `Cc1nc(N)c2ncn([C@@H]3O[C@H](CN(C)C/C=C\CN)[C@@H](O)[C@H]3O)c2n1` [Compound 5], the half-inhibitory concentration (IC50) at CYP1A2 is more than 5 µM; with Schistosomes lavae, more than 10 µM; at CYP2C9 it was more than 5 µM; on CYP2C19, more than 5 µM; against CYP3A4, more than 5 µM; with Schistosomes adult, more than 10 µM. Besides, the IC50 against CYP2D6 is more than 5 µM; in the series with T. b. brucei (Trypanosoma brucei), more than 14 µM. Further, in series [1], the solubility at 16 hours is more than 49 µg/mL. In “LogD”, this compound yielded a logD of less than 1.
Consider `CCc1nc2c(N)ncnc2n1[C@@H]1O[C@H](CN(C)C/C=C\CN)[C@@H](O)[C@H]1O` [Compound 6], for which the IC50 was more than 5 µM against CYP1A2; more than 10 µM in the series with Schistosomes lavae; more than 5 µM at CYP2C9; more than 5 µM at CYP2C19; more than 5 µM against CYP3A4; more than 10 µM in the series with Schistosomes adult. Further, the IC50 is more than 5 µM at CYP2D6, 0.64 µM in the series with T. b. brucei and 1.16 µM with T. b. brucei (Trypanosoma brucei). In [1], this compound displayed a solubility at 16 hours of more than 51 µg/mL. In the series “LogD”, this compound showed a logD of less than 1.

(Values after patent US8633168B2, “Inhibitors of S-adenosyl-L-methionine decarboxylase” (Genzyme Corporation, priority 2007, dated 2014).)
